Laboratory results: ChEMBL document CHEMBL5365526 (J Med Chem, 2023)
The source made the active and inactive calls. The calls are words filed in the database; no cut-off is given here.

Experiments:
[1] = target: T1, von Hippel-Lindau disease tumor suppressor/Mitogen-activated protein kinase 7 (Homo sapiens, UniProt Q13164+P40337); experiment: PROTAC activity at VHL/ERK5 in human A-375 cells assessed as induction of ERK5 degradation incubated for 24 hrs by western blot analysis; assay type: cell-based
Target sequence in this assay (Q13164 whole entry): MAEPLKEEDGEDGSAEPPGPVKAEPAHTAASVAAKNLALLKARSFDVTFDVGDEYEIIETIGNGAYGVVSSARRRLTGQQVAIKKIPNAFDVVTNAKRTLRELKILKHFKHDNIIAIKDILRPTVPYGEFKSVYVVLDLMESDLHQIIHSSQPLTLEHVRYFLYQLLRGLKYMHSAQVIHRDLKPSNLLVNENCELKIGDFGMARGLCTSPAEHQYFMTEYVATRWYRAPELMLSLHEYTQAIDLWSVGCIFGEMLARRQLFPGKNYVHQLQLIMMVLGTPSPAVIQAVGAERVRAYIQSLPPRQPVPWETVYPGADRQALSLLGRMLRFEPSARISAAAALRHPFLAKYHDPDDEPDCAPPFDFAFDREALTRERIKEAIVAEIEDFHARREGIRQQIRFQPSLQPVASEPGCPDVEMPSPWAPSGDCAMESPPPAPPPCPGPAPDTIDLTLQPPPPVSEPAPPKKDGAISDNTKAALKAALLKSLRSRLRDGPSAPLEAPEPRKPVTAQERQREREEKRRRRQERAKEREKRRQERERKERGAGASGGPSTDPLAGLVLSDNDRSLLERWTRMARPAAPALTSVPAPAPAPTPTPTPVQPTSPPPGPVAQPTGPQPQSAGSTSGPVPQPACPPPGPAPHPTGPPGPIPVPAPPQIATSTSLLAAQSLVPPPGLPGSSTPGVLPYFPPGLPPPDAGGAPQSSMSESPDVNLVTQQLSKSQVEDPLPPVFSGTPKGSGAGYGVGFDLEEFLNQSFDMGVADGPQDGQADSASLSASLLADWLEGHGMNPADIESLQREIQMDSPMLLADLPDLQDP
Target sequence in this assay (P40337 whole entry): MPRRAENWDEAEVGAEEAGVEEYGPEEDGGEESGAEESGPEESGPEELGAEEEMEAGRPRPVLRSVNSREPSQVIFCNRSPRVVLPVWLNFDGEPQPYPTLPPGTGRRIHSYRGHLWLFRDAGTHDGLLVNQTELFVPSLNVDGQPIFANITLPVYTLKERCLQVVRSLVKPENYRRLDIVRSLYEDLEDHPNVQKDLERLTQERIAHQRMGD

[2] = target: T1, von Hippel-Lindau disease tumor suppressor/Mitogen-activated protein kinase 7; experiment: PROTAC activity at VHL/ERK5 in human A-375 cells assessed as induction of ERK5 degradation at 200 nM pretreated for 1 hr with proteasome inhibitor, MG132 followed by incubation with compound for 12 hrs by western blot analysis; assay type: cell-based
Target sequence in this assay (P40337 whole entry partner): as the sequence (P40337 whole entry) above
Target sequence in this assay (Q13164 2-816 limits assumed): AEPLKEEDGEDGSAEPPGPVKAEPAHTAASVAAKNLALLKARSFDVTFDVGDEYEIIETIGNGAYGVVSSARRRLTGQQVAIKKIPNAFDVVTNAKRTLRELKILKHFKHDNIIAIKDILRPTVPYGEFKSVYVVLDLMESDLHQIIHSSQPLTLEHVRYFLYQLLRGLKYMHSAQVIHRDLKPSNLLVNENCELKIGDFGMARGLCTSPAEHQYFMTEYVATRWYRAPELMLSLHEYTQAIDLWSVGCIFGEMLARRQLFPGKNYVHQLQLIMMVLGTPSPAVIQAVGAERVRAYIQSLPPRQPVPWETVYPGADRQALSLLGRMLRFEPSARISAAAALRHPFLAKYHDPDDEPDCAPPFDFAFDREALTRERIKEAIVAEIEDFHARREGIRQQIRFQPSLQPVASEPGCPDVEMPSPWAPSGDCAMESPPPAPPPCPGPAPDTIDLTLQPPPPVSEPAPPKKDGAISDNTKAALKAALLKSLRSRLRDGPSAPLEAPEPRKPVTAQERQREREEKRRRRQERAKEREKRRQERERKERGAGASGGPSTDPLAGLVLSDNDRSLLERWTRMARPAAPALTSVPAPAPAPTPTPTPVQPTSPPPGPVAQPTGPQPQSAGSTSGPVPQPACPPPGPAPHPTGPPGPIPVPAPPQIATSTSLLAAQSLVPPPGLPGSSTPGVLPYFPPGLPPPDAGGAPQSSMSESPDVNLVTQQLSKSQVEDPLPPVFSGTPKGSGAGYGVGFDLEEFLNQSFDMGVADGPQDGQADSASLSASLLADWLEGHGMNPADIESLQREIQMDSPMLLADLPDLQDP

[3] = target: T1, von Hippel-Lindau disease tumor suppressor/Mitogen-activated protein kinase 7; experiment: PROTAC activity at VHL/ERK5 in human A-375 cells assessed as induction of ERK5 degradation at 200 nM pretreated for 1 hr with E3 ligase inhibitor, MLN4924 followed by incubation with compound for 12 hrs by western blot analysis; assay type: cell-based
Target sequence in this assay (P40337 whole entry partner): as the sequence (P40337 whole entry) above
Target sequence in this assay (Q13164 2-816 limits assumed): as the sequence (Q13164 2-816 limits assumed) above

[4] = target: T1, von Hippel-Lindau disease tumor suppressor/Mitogen-activated protein kinase 7; experiment: PROTAC activity at VHL/ERK5 in human A-375 cells assessed as induction of ERK5 degradation at 1.1 microM incubated for 12 hrs by western blot analysis; assay type: cell-based
Target sequence in this assay (P40337 whole entry partner): as the sequence (P40337 whole entry) above
Target sequence in this assay (Q13164 2-816 limits assumed): as the sequence (Q13164 2-816 limits assumed) above

[5] = target: von Hippel-Lindau disease tumor suppressor/Serine/threonine-protein kinase DCLK1 (Homo sapiens) (UniProt O15075+P40337); experiment: PROTAC activity at VHL/DCLK1 in human A-375 cells assessed as induction of DCLK1 degradation at 6 to 500 nM incubated for 12 hrs by western bot analysis; assay type: cell-based; conditions: dose 6-500 nM
[6] = target: von Hippel-Lindau disease tumor suppressor/Leucine-rich repeat serine/threonine-protein kinase 2 (Homo sapiens) (UniProt Q5S007+P40337); experiment: PROTAC activity at VHL/LRRK2 in human A-375 cells assessed as induction of LRRK2 degradation at 6 to 500 nM incubated for 12 hrs by western bot analysis; assay type: cell-based; conditions: dose 6-500 nM
[7] = target: T1, von Hippel-Lindau disease tumor suppressor/Mitogen-activated protein kinase 7; experiment: PROTAC activity at VHL/ERK5 in human A-375 cells assessed as induction of ERK5 degradation at 200 nM incubated for 12 hrs by western blot analysis; assay type: cell-based
Target sequence in this assay (P40337 whole entry partner): as the sequence (P40337 whole entry) above
Target sequence in this assay (Q13164 2-816 limits assumed): as the sequence (Q13164 2-816 limits assumed) above

[8] = target: T1, von Hippel-Lindau disease tumor suppressor/Mitogen-activated protein kinase 7; experiment: PROTAC activity at VHL/ERK5 in human A-375 cells assessed as induction of ERK5 degradation at 200 nM incubated for 72 hrs by western blot analysis; assay type: cell-based
Target sequence in this assay (P40337 whole entry partner): as the sequence (P40337 whole entry) above
Target sequence in this assay (Q13164 2-816 limits assumed): as the sequence (Q13164 2-816 limits assumed) above

[9] = target: T1, von Hippel-Lindau disease tumor suppressor/Mitogen-activated protein kinase 7; experiment: PROTAC activity at VHL/ERK5 in human HCT-116 cells assessed as induction of ERK5 degradation incubated for 12 hrs by western blot analysis; assay type: cell-based
Target sequence in this assay (Q13164 whole entry): as the sequence (Q13164 whole entry) above
Target sequence in this assay (P40337 whole entry): as the sequence (P40337 whole entry) above

A-375 [10] = experiment: Effect on vemurafenib-induced antitumor activity against human A-375 cells assessed as reduction in cell viability at 200 nM incubated for 72 hrs by CCK8 assay; assay type: functional, cell-based
NCI-H1975 = experiment: Antiproliferative activity against human NCI-H1975 cells assessed as reduction in cell viability incubated for 72 hrs by CCK8 assay; assay type: functional, cell-based
MDA-MB-231 = experiment: Antiproliferative activity against human MDA-MB-231 cells assessed as reduction in cell viability incubated for 72 hrs by CCK8 assay; assay type: functional, cell-based
HCT-116 [11] = experiment: Antiproliferative activity against human HCT-116 cells assessed as reduction in cell viability incubated for 72 hrs by CCK8 assay; assay type: functional, cell-based
A-375 [12] = experiment: Effect on trametinib-induced antitumor activity against human A-375 cells assessed as reduction in cell viability at 200 nM incubated for 72 hrs by CCK8 assay; assay type: functional, cell-based
A-375 [13] = experiment: Effect on mirdametinib-induced antitumor activity against human A-375 cells assessed as reduction in cell viability at 200 nM incubated for 72 hrs by CCK8 assay; assay type: functional, cell-based
HCT-116 [14] = experiment: Effect on dabrafenib-induced antitumor activity against human HCT-116 cells assessed as reduction in cell viability at 200 nM incubated for 72 hrs by CCK8 assay; assay type: functional, cell-based
HCT-116 [15] = experiment: Effect on mirdametinib-induced antitumor activity against human HCT-116 cells assessed as reduction in cell viability at 200 nM incubated for 72 hrs by CCK8 assay; assay type: functional, cell-based
HCT-116 [16] = experiment: Effect on GDC0994-induced antitumor activity against human HCT-116 cells assessed as reduction in cell viability at 200 nM incubated for 72 hrs by CCK8 assay; assay type: functional, cell-based
HCT-116 [17] = experiment: Effect on cell migration in human HCT-116 cells at 0.01 to 1 uM incubated for 24 hrs by crystal violet staining based transwell assay; assay type: functional; conditions: dose 0.01-1 µM
A-375 [18] = experiment: Effect on cell migration in human A-375 cells at 0.01 to 1 uM incubated for 24 hrs by crystal violet staining based transwell assay; assay type: functional; conditions: dose 0.01-1 µM
[19] = target: T1, von Hippel-Lindau disease tumor suppressor/Mitogen-activated protein kinase 7; experiment: PROTAC activity at VHL/ERK5 in human HCT-116 cells assessed as induction of ERK5 degradation at 200 nM incubated for 48 hrs by western blot analysis; assay type: cell-based
Target sequence in this assay (P40337 whole entry partner): as the sequence (P40337 whole entry) above
Target sequence in this assay (Q13164 2-816 limits assumed): as the sequence (Q13164 2-816 limits assumed) above

[20] = target: T1, von Hippel-Lindau disease tumor suppressor/Mitogen-activated protein kinase 7; experiment: PROTAC activity at VHL/ERK5 in human THP-1 cells assessed as induction of ERK5 degradation at 0.5 uM incubated for 0.5 hrs followed by incubation with LPS for 24 hrs by western blot analysis; assay type: cell-based; conditions: time 24.5 hrs
[21] = target: T1, von Hippel-Lindau disease tumor suppressor/Mitogen-activated protein kinase 7; experiment: PROTAC activity at VHL/ERK5 in human THP-1 cells assessed as decrease in IL-6 level at 0.5 uM incubated for 0.5 hrs followed by incubation with LPS for 24 hrs; assay type: cell-based; conditions: time 24.5 hrs
[22] = target: T1, von Hippel-Lindau disease tumor suppressor/Mitogen-activated protein kinase 7; experiment: PROTAC activity at VHL/ERK5 in human THP-1 cells assessed as decrease in IL-10 level at 0.5 uM incubated for 0.5 hrs followed by incubation with LPS for 24 hrs; assay type: cell-based; conditions: time 24.5 hrs
THP-1 = experiment: Inhibition of M2 macrophage development in PMA-differentiated human THP-1 cells assessed as morphological alterations in macrophages at 0.5 uM incubated for 48 hrs by microscopic analysis; assay type: functional, cell-based
HCT-116 [23] = experiment: Inhibition of M2 macrophage development in human HCT-116 cells assessed as inhibition of cell colony formation at 0.5 uM cultured in specific M2 medium and measured after 7 days in presence of LPS by crystal violet staining based analysis; assay type: functional; conditions: time 7.0 day
[24] = Inhibition of M2 macrophage development in PMA-differentiated human THP-1 cells assessed as CD206 surface expression at 0.5 uM incubated for 48 hrs by flow cytometry (reference value: 53.4%); assay type: functional; parameters: scale not given: the % may be the effect or the level left
HCT-116 [25] = experiment: Inhibition of cell colony formation in human HCT-116 cells at 0.5 uM cultured in 8% FBS and measured after 7 days in presence of LPS by crystal violet staining based analysis; assay type: functional; conditions: time 7.0 day
A-375 [26] = experiment: Inhibition of M2 macrophage development in human A-375 cells assessed as inhibition of cell colony formation at 0.5 uM cultured in specific M2 medium and measured after 7 days in presence of LPS by crystal violet staining based analysis; assay type: functional; conditions: time 7.0 day
HCT-116 [27] = experiment: Inhibition of M2 macrophage development in human HCT-116 cells assessed as inhibition of cell colony formation at 0.5 uM cultured in macrophage M0 medium and measured after 7 days in presence of LPS by crystal violet staining based analysis; assay type: functional; conditions: time 7.0 day
[28] = target: T1, von Hippel-Lindau disease tumor suppressor/Mitogen-activated protein kinase 7; experiment: PROTAC activity at VHL/ERK5 in human NCI-H1975 cells assessed as maximal induction of ERK5 degradation incubated for 12 hrs by western blot analysis relative to control; assay type: cell-based
[29] = target: T1, von Hippel-Lindau disease tumor suppressor/Mitogen-activated protein kinase 7; experiment: PROTAC activity at VHL/ERK5 in human HCT-116 cells assessed as maximal induction of ERK5 degradation incubated for 12 hrs by western blot analysis relative to control; assay type: cell-based
[30] = target: T1, von Hippel-Lindau disease tumor suppressor/Mitogen-activated protein kinase 7; experiment: PROTAC activity at VHL/ERK5 in human A-375 cells assessed as maximal induction of ERK5 degradation incubated for 12 hrs by western blot analysis relative to control; assay type: cell-based

von Hippel-Lindau disease tumor suppressor/Serine/threonine-protein kinase DCLK1 (Homo sapiens), sequence (O15075 whole entry, looked up): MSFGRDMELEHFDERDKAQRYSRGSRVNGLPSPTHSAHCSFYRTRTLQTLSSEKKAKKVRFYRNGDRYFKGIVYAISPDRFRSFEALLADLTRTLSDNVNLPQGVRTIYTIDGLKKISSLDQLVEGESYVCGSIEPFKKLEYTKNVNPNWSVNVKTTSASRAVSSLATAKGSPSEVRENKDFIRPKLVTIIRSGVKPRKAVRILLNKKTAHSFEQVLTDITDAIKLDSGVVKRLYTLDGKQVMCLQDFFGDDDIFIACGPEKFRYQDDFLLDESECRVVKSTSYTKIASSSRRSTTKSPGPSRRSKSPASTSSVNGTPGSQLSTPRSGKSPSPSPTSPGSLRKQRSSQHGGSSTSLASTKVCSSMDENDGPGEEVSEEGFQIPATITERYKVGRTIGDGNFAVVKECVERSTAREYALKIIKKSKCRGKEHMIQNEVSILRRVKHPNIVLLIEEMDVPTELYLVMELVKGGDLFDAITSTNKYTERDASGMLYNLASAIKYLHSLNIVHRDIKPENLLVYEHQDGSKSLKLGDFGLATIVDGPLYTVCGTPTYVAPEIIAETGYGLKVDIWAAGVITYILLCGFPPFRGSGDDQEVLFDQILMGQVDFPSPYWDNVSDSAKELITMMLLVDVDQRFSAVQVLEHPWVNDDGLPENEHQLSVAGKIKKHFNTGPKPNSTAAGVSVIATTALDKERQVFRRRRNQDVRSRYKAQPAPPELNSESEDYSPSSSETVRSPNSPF
von Hippel-Lindau disease tumor suppressor/Serine/threonine-protein kinase DCLK1 (Homo sapiens), sequence (P40337 whole entry, looked up): as the sequence (P40337 whole entry) above

DC50 [1]: ~17 nM | Activity [2]: inactive | Activity [3]: inactive | Activity [4]: inactive | Activity [5]: inactive | Activity [6]: inactive | Activity [7]: Active | Activity [8]: Active | DC50 [9]: 5.6 nM | Activity [19]: Active | Activity [20]: Active | Activity [21]: Active | Activity [22]: Active | Activity [28]: 94.7% | Activity [29]: 88.9% | Activity [30]: 91.4%
Compound: COc1cc(N2CCN(CCCCCCC(=O)N[C@H](C(=O)N3C[C@H](O)C[C@H]3C(=O)N[C@@H](C)c3ccc(-c4scnc4C)cc3)C(C)(C)C)CC2)ccc1Nc1ncc2c(n1)N(C)c1ccccc1C(=O)N2C
Activity (A-375 [10]): inactive | Activity (NCI-H1975): inactive | Activity (MDA-MB-231): inactive | Activity (HCT-116 [11]): inactive | Activity (A-375 [12]): inactive | Activity (A-375 [13]): inactive | Activity (HCT-116 [14]): inactive | Activity (HCT-116 [15]): inactive | Activity (HCT-116 [16]): inactive | Activity (HCT-116 [17]): inactive | Activity (A-375 [18]): inactive | inhibition (THP-1): Active | inhibition (HCT-116 [23]): Active | Activity [24]: 41.3% | inhibition (HCT-116 [25]): inactive | inhibition (A-375 [26]): Active | inhibition (HCT-116 [27]): Active
